# Assay results published in US20230348358A1, “Serotonin Receptor Modulators” (Northeastern University, priority 2020, published 2023).
# “And” between values parts separate entries of the source, which are not always exact repeats. Equal entries are not always repeated. Where two headings read alike, the source gives them in different places.
# Tests used:
# 5HT7 [1] = molecular target: T1, 5HT7 (Homo sapiens, UniProt P34969); assay: Affinity (Ki) at 5HT7, HEK293 cells stably expressing 5HT7
# 5HT7 [2] = molecular target: T1, 5HT7; assay: 5HT7 function, Gs-cAMP signaling (HEK293 cells); assay type: cell-based; set-up: ATCC CRL-1573 (cells); conditions: for Function at 5HT7: cAMP signaling
# Description: It is certain that the C(5) substituent impacts function. […] In FIG. 3, results of measured (S)-5-PAT scaffold yields with various function as 5HT7 ligands are compared with AS-19 and clozapine.
# 5HT1A [3] = molecular target: T2, 5HT1A (Homo sapiens, UniProt P08908); assay: 5HT1A function, Gαi cAMP signaling (CHO cells); assay type: cell-based
# T2 sequence (P08908 1-422): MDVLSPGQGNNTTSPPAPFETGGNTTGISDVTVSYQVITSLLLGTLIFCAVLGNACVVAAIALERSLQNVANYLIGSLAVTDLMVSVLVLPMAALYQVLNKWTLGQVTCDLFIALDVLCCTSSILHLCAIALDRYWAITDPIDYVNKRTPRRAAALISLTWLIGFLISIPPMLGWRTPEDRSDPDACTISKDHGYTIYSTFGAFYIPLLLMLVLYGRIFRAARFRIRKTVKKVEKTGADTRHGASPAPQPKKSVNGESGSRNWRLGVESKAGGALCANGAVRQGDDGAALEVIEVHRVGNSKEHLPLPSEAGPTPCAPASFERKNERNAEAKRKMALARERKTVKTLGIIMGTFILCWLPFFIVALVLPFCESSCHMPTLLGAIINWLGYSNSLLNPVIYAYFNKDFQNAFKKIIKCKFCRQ
# 5HT1A [4] = molecular target: T2, 5HT1A; assay: Affinity (Ki) at 5HT1A, transfected HEK cells
# C57BL/6J mice = assay: DOI-elicited head-twitch response (HTR); assay type: in vivo, mouse; conditions: mouse, in vivo
# Description: The 5-HT2A receptor is a predominant 5-HT receptor in the cortex, and serves important excitation modulation functions on glutamate pyramidal and GABA neurons.
# [5] = tested on: mice (C57BL/6J, FVB, C58/J); assay: Locomotor behavior, compound on its own; assay type: in vivo, mouse; conditions: for Locomotor behavior: compound on its own or in the DOI assay
# 5HT2A receptors [6] = molecular target: T3, 5HT2A receptors (Homo sapiens, UniProt P28223); assay: biochemical; assay type: binding
# T3 construct: host or cells: HEK293, transient
# 5HT2C receptors = molecular target: T4, 5HT2C receptors (Homo sapiens, UniProt P28335); assay: 5HT2C functional assay; assay type: cell-based
# T4 construct: host or cells: HEK293, transient
# T4 sequence (P28335 33-458): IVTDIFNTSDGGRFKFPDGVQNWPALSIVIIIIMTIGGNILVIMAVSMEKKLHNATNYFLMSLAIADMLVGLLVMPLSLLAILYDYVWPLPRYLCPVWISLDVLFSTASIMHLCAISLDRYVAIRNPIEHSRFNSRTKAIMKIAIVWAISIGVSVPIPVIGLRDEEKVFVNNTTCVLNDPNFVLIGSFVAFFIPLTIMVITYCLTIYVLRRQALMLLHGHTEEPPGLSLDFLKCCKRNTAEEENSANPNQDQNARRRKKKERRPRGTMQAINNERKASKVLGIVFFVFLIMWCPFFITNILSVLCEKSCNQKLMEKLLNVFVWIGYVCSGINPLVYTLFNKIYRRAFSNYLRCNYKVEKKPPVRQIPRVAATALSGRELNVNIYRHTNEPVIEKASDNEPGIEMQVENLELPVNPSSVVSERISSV
# 50 CNS/peripheral sites = assay: NIMH PDSP / NIDA evaluation at 50 CNS/peripheral sites; assay type: binding
# 5HT2B receptors [7] = molecular target: T5, 5HT2B receptors (Homo sapiens, UniProt P41595); assay: Affinity at 5HT2B receptors; assay type: binding
# T5 construct: host or cells: HEK293, transient
# 5HT2B receptors [8] = molecular target: T5, 5HT2B receptors; assay: 5HT2B functional assays; assay type: cell-based
# 5HT2A receptors [9] = molecular target: T3, 5HT2A receptors; assay: 5-HT2A function in HEK cells over-expressing the receptor; assay type: cell-based
# 5HT7 [10] = molecular target: T1, 5HT7; set-up: ATCC CRL-1573 (cells); conditions: reported human receptor data; cited from earlier work
# 5HT7 [11] = molecular target: T1, 5HT7; set-up: ATCC CRL-1573 (cells); conditions: cited from earlier work
# BL/6J mice = assay: Serotonin syndrome-like behavior observation; assay type: in vivo, mouse; conditions: mouse, in vivo
# [12] = read-out: Affinity Ki ± SEM at 5HT7
# [13] = read-out: Affinity Ki ± SEM at 5HT1A
# T3 sequence (P28223 whole entry): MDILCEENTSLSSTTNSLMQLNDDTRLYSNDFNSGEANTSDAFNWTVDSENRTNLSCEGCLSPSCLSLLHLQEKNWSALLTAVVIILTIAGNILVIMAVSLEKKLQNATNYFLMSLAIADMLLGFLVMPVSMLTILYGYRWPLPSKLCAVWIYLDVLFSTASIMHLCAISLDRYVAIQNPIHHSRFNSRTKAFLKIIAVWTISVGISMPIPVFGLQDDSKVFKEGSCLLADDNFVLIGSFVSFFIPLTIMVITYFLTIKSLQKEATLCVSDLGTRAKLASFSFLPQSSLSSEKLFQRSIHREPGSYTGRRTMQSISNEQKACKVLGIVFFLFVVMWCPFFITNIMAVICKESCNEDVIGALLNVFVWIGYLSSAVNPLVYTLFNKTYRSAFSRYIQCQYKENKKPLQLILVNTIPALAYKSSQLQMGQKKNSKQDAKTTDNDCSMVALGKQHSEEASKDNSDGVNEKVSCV
# T1 sequence (P34969 whole entry): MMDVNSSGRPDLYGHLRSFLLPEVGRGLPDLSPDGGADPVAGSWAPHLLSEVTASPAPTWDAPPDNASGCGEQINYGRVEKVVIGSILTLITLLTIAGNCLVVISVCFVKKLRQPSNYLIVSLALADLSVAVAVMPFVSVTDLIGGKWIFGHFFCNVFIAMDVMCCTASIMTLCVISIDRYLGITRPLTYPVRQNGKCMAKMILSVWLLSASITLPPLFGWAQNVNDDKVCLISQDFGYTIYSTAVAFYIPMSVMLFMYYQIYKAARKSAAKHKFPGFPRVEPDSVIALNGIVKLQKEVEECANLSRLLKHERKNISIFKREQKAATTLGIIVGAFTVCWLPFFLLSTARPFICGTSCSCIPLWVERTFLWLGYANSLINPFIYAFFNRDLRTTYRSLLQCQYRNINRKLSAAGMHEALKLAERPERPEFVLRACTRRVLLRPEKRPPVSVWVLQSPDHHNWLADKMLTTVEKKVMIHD
# T5 sequence (P41595 whole entry): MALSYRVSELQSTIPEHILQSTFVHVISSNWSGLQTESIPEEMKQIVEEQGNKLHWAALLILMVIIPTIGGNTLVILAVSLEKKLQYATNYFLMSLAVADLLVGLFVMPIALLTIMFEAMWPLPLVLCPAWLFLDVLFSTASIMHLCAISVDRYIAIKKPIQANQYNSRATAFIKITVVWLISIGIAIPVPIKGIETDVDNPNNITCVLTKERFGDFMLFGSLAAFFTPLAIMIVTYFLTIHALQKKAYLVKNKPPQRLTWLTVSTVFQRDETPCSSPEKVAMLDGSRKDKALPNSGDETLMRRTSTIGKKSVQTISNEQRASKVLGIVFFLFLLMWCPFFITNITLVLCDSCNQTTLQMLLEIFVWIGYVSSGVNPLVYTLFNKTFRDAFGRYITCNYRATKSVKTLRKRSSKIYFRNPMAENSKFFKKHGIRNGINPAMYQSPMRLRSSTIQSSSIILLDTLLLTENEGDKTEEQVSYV
smiles,measurement,setting,value
"CN(C)[C@H]1CCc2c(cccc2-c2ccccc2)C1.Cl [(S)-5-PT, N,N-dimethyl-5-phenyl-1,2,3,4-tetrahydronaphthalen-2-amine HCl]",Ki,5HT7 [1]; Affinity Ki ± SEM at 5HT7,9.5 ± 1.5 nM
same,Function at 5HT7,5HT7 [2],Neutral antagonist
same,Function at 5HT1A,5HT1A [3],Partial agonist
same,Ki,5HT1A [4],22 ± 3 nM
CN(C)[C@H]1CCc2c(cccc2-c2cccn2C)C1 [(S)-5-PyT],Ki,5HT7 [1]; Affinity Ki ± SEM at 5HT7,33 ± 4 nM
same,Function at 5HT7,5HT7 [2],Inverse agonist
same,Function at 5HT7,5HT7 [2]; listed as 5-PyT,inverse agonist at 5HT7/Gαs
same,Function at 5HT7,5HT7 [2]; listed as (2S)-5-PyT,inverse agonist
same,Function at 5HT1A,5HT1A [3],Partial agonist
same,Function at 5HT1A,5HT1A [3]; listed as 5-PyT,agonist at 5HT1A/Gαi
same,Function at 5HT1A,5HT1A [3]; listed as (2S)-5-PyT,agonist
same,Ki,5HT1A [4],24 ± 0.2 nM
"O=C1CC2(CCCC2)CC(=O)N1CCCCN1CCN(c2ncccn2)CC1 [Buspirone, reference compound]",Function at 5HT1A,5HT1A [3],Partial agonist
same,DOI-elicited HTR,C57BL/6J mice,reduces DOI-elicited repetitive behavior
same,Catatonia,"[5]; 3 mg/kg, by itself",causes stupor-like catatonia
same,Locomotor behavior,[5],reduces locomotor behavior
"CN(C)[C@H]1CCc2c(cccc2-c2ccccc2Cl)C1.Cl [(S)-5-CPT, (2S)-5-(2-chlorophenyl)-N,N-dimethyl-1,2,3,4-tetrahydronaphthalen-2-amine HCl]",Ki,5HT2A receptors [6],~500 nM
same,Agonist efficacy/potency at 5HT2C receptors,5HT2C receptors,less potency and efficacy
same,Ki,5HT7 [1]; [12],1 ± 0.12 nM
same,Function at 5HT7,5HT7 [2],Partial agonist
same,Function at 5HT1A,5HT1A [3],Partial agonist
same,Activity at 50 CNS/peripheral sites,50 CNS/peripheral sites,without activity at 50 CNS/peripheral sites
same,Ki,5HT2B receptors [7],11 nM
same,5HT2B functional activity,5HT2B receptors [8],devoid of 5HT2B activity up to 100 μM
same,Ki,5HT1A [4]; [13],7.5 ± 1.5 nM
CN(C)[C@@H]1CCc2c(cccc2-c2ccccc2F)C1 [(2R)-5-FPT],Affinity at 5-HT2A receptors,"5HT2A receptors [6]; human and mouse 5-HT2A receptors, compared with (2S)-5-FPT",substantially higher affinity
same,Ki,5HT7 [1]; Affinity Ki ± SEM at 5HT7,750 nM and ~460 nM
same,5-HT7 agonist potency of (R)-enantiomer less than (S)-isomer,5HT7 [2],about 11 times
same,EC50,5HT7 [2],378 nM
same,"EMAX vs AS-19, 5-HT7 Gs-cAMP signaling",5HT7 [2],29%
same,Function at 5HT7,5HT7 [2],partial agonism
same,DOI-elicited HTR,C57BL/6J mice,substantially less efficacious than (2S)-5-FPT
same,Function at 5-HT2A receptors,5HT2A receptors [9],neutral antagonist function
N#Cc1ccc(CNC(=O)CCCCCN2CCN(c3ccccc3-c3ccccc3)CC2)cc1 [LP-211],Selectivity for 5HT7 over 5HT1A receptors,5HT7 [10],about 25 X
"CCCN(CCC)[C@@H]1CCc2cccc(O)c2C1 [Compound 8-OH-DPAT, (R)-8-hydroxy-2-(n-di-propylamino)tetralin]",Function at 5HT7 (literature),5HT7 [11],low-potency 5HT7 partial agonist
"Fc1ccccc1-c1cccc2c1CCC(N1CCCC1)C2 (racemic) [(R/S)-5-FPyT, 1-(5-(2-fluorophenyl)-1,2,3,4-tetrahydronaphthalen-2-yl)-pyrrolidine]",Ki,5HT7 [1],51 ± 8 nM
same,Ki,5HT1A [4],1.3 ± 0.1 nM
"CCCN(CCC)[C@H]1CCc2c(cccc2-c2ccccc2)C1.Cl [(S)-5-PPT, (2S)-5-phenyl-N,N-dipropyl-1,2,3,4-tetrahydronaphthalen-2-amine HCl]",Ki,5HT7 [1]; [12],34 ± 3 nM
same,Function at 5HT7,5HT7 [2],Full agonist
same,Ki,5HT1A [4]; [13],5.9 ± 1.1 nM
"CCCN(CCC)C1CCc2cccc(O)c2C1 (single isomer, unassigned; (+)) [(+)-DPAT, reference compound]",Serotonin syndrome,BL/6J mice,obvious serotonin syndrome
same,DOI-elicited HTR,C57BL/6J mice,suppressed the DOI HTR
same,Locomotor behavior,[5],severe hypolocomotion
"Cc1nn(C)c(C)c1-c1cccc2c1CC[C@H](N(C)C)C2 [(S)-AS-19, (2S)-5-trimethylpyrazolyl-2-dimethyl-aminotetralin, reference compound]",Serotonin syndrome,BL/6J mice,"neither (—)-DPAT, a 5-HT1A partial agonist, nor AS-19 affected locomotor behavior or caused obvious serotonin syndrome"
same,Selectivity for 5HT7 over 5HT1A,5HT7 [1]; from Ki of Table 1,20 fold
same,Ki,5HT7 [1]; [12],12 nM
same,Function at 5HT7,5HT7 [2],Partial agonist
same,DOI-elicited HTR,C57BL/6J mice,suppressed the DOI HTR
same,Locomotor behavior,[5],"neither (—)-DPAT, a 5-HT1A partial agonist, nor AS-19 affected locomotor behavior"
same,Ki,5HT1A [4]; [13],240 nM
"CCCN(CCC)C1CCc2cccc(O)c2C1 (stereo not drawn) [(—)-DPAT, reference compound]",Serotonin syndrome,BL/6J mice,"neither (—)-DPAT, a 5-HT1A partial agonist, nor AS-19 affected locomotor behavior or caused obvious serotonin syndrome"
same,DOI-elicited HTR,C57BL/6J mice,suppressed the DOI HTR
same,Locomotor behavior,[5],"neither (—)-DPAT, a 5-HT1A partial agonist, nor AS-19 affected locomotor behavior"
"CN(C)[C@H]1CCc2c(cccc2-c2cccc3ccccc23)C1 [(S)-5-NaT, (2S)—N,N-dimethyl-5,6,7,8-tetrahydro-[1,1′-binaphthalen]-6-amine]",Ki,5HT7 [1]; [12],5.2 ± 1.1 nM
same,Function at 5HT7,5HT7 [2],Partial agonist
same,Function at 5HT1A,5HT1A [3],Partial agonist
same,Ki,5HT1A [4]; [13],64 ± 12 nM
"CCCN(CCC)[C@H]1CCc2c(cccc2-c2ccccc2Cl)C1 [(S)-5-CPPT, (2S)-5-(2′-chlorophenyl)-N,N-dipropyl-1,2,3,4-tetrahydronaphtha-len-2-amine]",Ki,5HT7 [1]; [12],5.9 ± 1 nM
same,Function at 5HT7,5HT7 [2],Full agonist
same,Ki,5HT1A [4],0.6 ± 0.2 nM
